Results: patent US20060069038A1, “Irreversible caspase-3 inhibitors as active site probes” (priority 2003, published 2006)
pIC50: −log10 of the molar value. Like-named read-outs stand apart in the source and are kept apart here.

Columns and labels:
Assay type in all cases: cell-based
[1] = biological target: T1, caspase-3 (Rattus norvegicus, UniProt P55213); test: Caspase active site occupancy by [125I]-M808 labeling in whole rat thymocytes
T1 construct: endogenous in cells; host or cells: primary rat thymocytes (Sprague-Dawley), spontaneous apoptosis in culture
T1 sequence (P55213 29-175 limits assumed): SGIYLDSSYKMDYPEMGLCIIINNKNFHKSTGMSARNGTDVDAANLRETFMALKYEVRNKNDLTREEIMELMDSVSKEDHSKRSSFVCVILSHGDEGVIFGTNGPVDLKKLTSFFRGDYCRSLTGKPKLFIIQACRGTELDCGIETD
T1 sequence (P55213 176-277 limits assumed): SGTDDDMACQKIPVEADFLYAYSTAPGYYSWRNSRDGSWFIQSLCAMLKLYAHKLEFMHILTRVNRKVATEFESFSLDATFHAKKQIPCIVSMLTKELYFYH
Description: FIG. 5. Determination of caspase active site occupancy by M867 in cultured rat thymocytes. A-Theoretical calculations for the determination of the percentage of caspase-3 active sites occupied by M867 in whole cells. The total amount of caspase-3 p17 subunit is determined densitometrically by either Western blotting of saturation [^125I]-M808 labeling. Partial labeling of active caspases in whole cells is perforemd (see materials and methods). A graph of the p17 amount against partial [^125I]-M808 labeling signal in the absence of M867 (or other reversible caspase inhibitors) is plotted. The [^125I]-M808 signal expected from the measured p17 amount is estimated form this plot. The actual [^125I]-M808 signal (by partial labeling) in the presence of reversible inhibitor is measured. The ratio of actual [^125I]-M808 signal over expected [^125I]-M808 signal multiplied by 100=the percentage of caspase active sites unoccupied by an inhibitor. The percentage occupancy=100−% free active sites. B-C An actual determination of caspase active site occupancy by M867 in whole rat thymocytes. B-caspase-3 western blot. C-[^125I]-M808 signal from whole rat thymocytes exposed to increasing concentrations of M867. Comparison of M867 caspase inhibition potency (IC50) determined by DNA fragmentation inhibition and [^125I]-M808 labeling is also depicted. […]

[2] = system: spectrin cleavage; test: Spectrin cleavage in cultured thymocytes; settings: Rattus norvegicus, Thymocyte, N. Methot et al., in press, read-out: IC50, inhibition of spectrin cleavage
[3] = biological target: T1, caspase-3; test: Caspase-3 western blot in cultured rat thymocytes; settings: FIG. 5B
Description: Rat thymocytes were cultured for 24 hours at a density of 10×10^6 cells/ml in CytoSF4 supplemented with 2 mM L-glutamine and penicillin-streptamycin and the indicated concentration of caspase inhibitors.
Denatured protein extracts in 1× Laemli buffer were resolved through a 18% acrylamide gradient SDS-PAGE gel (Invitrogen) at 30 mA in Tris-Glycine buffer. Samples labeled with [^125I]-M808 were migrated until the dye front reached 0.5 cm above the end of the gel, and acrylamide 1 cm above the dye front was cut out to remove all free [^125I]-M808 and reduce background. The gels were fixed for 45 minutes in a 40% Methanol-10% Acetic acid solution and dried for 90 min at 80° C. before exposure on MS Kodak film with MS intensifying screens. For Western blotting, proteins were transferred onto a […] nitrocellulose membrane (Invitrogen) in Tris-Glycine-20% methanol buffer at 40V for 2 hours. Non-specific protein binding was minimized by incubating the membranes for 1 hour in blocking buffer (5% non-fat milk/TBS/0.1% Tween-20). Anti-caspase-3 (W R280 and MF467) were diluted 2000-fold in blocking buffer and incubated for 1 hour at 25° C. […] Densitometry was performed using a BioRad instrument and QuantityOne software. […]

- pIC50 ([1]; five independent experiments, p=0.03 vs DNA fragmentation IC50, read-out: IC50 determined with M808): 6.89
- pIC50 ([1]; whole rat thymocytes, experiment of FIG. 5, read-out: IC50, occupancy of caspase by M867 ([125I]-M808 labeling)): 6.85
- pIC50 [2]: 7.05
Structure (SMILES): CCCCCN(C)CC(=O)[C@H](CC(=O)O)NC(=O)[C@H](CC)n1cc(C(C)(C)C)nc(NCc2nonc2C)c1=O [Example M867, (3S)-3-({(2S)-2-[5-tert-butyl-3-{[(4-methyl-1,2,5-oxadiazol-3-yl)methyl]amino}-2-oxopyrazin-1(2H)-yl]butanoyl}amino)-5-[methyl(pentyl)amino]-4-oxopentanoic acid]
- impact on caspase-3 cleavage [3]: minimal impact on caspase-3 cleavage except at the highest concentration
